Data reported in ChEMBL document CHEMBL1201862, “PubChem BioAssay data set” (2004).
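Protocol summary: plate cells (96-well), add compound at 5 concentrations, incubate 48 h, interpolate endpoints linearly. The concentration for 50% growth inhibition is given as GI50.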 The source made the active and inactive calls. Rule as the data show it: active = GI50 up to about 1.1 µM and inactive = higher.

How the values were obtained:
Experiment in all cases: growth of human tumour cells (NCI), 48 h
786-0 = system: 786-0
A498 = system: A498
A549 = system: A549
ACHN = system: ACHN
BT-549 = system: BT-549
CAKI-1 = system: CAKI-1
CCRF-CEM = system: CCRF-CEM
COLO 205 = system: COLO 205
DMS-114 = system: DMS-114
DMS-273 = system: DMS-273
DU-145 = system: DU-145
EKVX = system: EKVX
HCC 2998 = system: HCC 2998
HCT-116 = system: HCT-116
HCT-15 = system: HCT-15
HL-60 = system: HL-60
HOP-18 = system: HOP-18
HOP-62 = system: HOP-62
HOP-92 = system: HOP-92
HT-29 = system: HT-29
Hs-578T = system: Hs-578T
IGROV-1 = system: IGROV-1
K562 = system: K562
KM-20L2 = system: KM-20L2
KM12 = system: KM12
LOX IMVI = system: LOX IMVI
LXFL 529 = system: LXFL 529
M14 = system: M14
M19-MEL = system: M19-MEL
MCF7 = system: MCF7
MDA-MB-231 = system: MDA-MB-231
MDA-MB-435 = system: MDA-MB-435
MDA-N = system: MDA-N
MOLT-4 = system: MOLT-4
Malme-3M = system: Malme-3M
NCI-H226 = system: NCI-H226
NCI-H23 = system: NCI-H23
NCI-H460 = system: NCI-H460
NCI-H522 = system: NCI-H522
OVCAR-3 = system: OVCAR-3
OVCAR-4 = system: OVCAR-4
OVCAR-5 = system: OVCAR-5
OVCAR-8 = system: OVCAR-8
PC-3 = system: PC-3
RPMI-8226 = system: RPMI-8226
RXF 393 = system: RXF 393
SF-268 = system: SF-268
SF-295 = system: SF-295
SF-539 = system: SF-539
SK-MEL-28 = system: SK-MEL-28
SK-MEL-2 = system: SK-MEL-2
SK-MEL-5 = system: SK-MEL-5
SK-OV-3 = system: SK-OV-3
SN12C = system: SN12C
SNB-19 = system: SNB-19
SNB-75 = system: SNB-75
SNB-78 = system: SNB-78
SW-620 = system: SW-620
T47D = system: T47D
TK-10 = system: TK-10
U-251 = system: U-251
UACC-257 = system: UACC-257
UACC-62 = system: UACC-62
UO-31 = system: UO-31

Measured: GI50

O=C(O)CC/C(=N\Nc1nsc2ccccc12)c1ccc(Cl)cc1
21.1 µM: HCT-15
inactive: 786-0 17.8 µM | A498 37 µM | A549 > 49.1 µM | ACHN 28.2 µM | BT-549 25.1 µM | CAKI-1 23.3 µM | CCRF-CEM 6.84 µM | COLO 205 43.4 µM | DMS-114 25 µM | DMS-273 20 µM | DU-145 30.3 µM | EKVX 69.5 µM | HCC 2998 17.5 µM | HCT-116 17.9 µM | HL-60 23.6 µM | HOP-18 4.19 µM | HOP-62 23.5 µM | HOP-92 24 µM | HT-29 29.8 µM | Hs-578T 33.3 µM | IGROV-1 30.1 µM | K562 23 µM | KM-20L2 41.1 µM | KM12 22.9 µM | LOX IMVI 12.2 µM | LXFL 529 19.4 µM | M14 25.1 µM | M19-MEL 35 µM | MCF7 5.75 µM | MDA-MB-231 35.6 µM | MDA-MB-435 27.5 µM | MDA-N 31.3 µM | MOLT-4 21.9 µM | Malme-3M 45 µM | NCI-H226 > 100 µM | NCI-H23 21.2 µM | NCI-H460 28.4 µM | NCI-H522 34.5 µM | OVCAR-3 18.3 µM | OVCAR-4 20.8 µM | OVCAR-5 54.5 µM | OVCAR-8 43.5 µM | PC-3 20.9 µM | RPMI-8226 11 µM | RXF 393 23.5 µM | SF-268 21.9 µM | SF-295 32.8 µM | SF-539 31.5 µM | SK-MEL-28 17.5 µM | SK-MEL-2 36.5 µM | SK-MEL-5 22.2 µM | SK-OV-3 32.6 µM | SN12C 26 µM | SNB-19 > 64 µM | SNB-75 28.5 µM | SNB-78 31.6 µM | SW-620 28.6 µM | T47D 31.2 µM | TK-10 46.9 µM | U-251 18 µM | UACC-257 25.5 µM | UACC-62 19.8 µM | UO-31 21.1 µM
